Tests used:
Test in all cases: relative viability (nuclei count vs DMSO), 5 days (fraction); higher = more cells survive
CUDC-101 = compound: C#Cc1cccc(Nc2ncnc3cc(OC)c(OCCCCCCC(=O)NO)cc23)c1 [CUDC-101]
In short: (§1)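 Lung cancer cell lines in 1536-well plates were exposed by pinning to five library-drug doses (not always all listed) √10 apart, following an overnight hold at 37 °C. MetaXpress counted Hoechst-stained nuclei from 4× images taken after 5 days without medium change. Viability is the median ratio of treated-well to vehicle-well nuclei across plates. Plates required control CV below 25% and at least one doubling.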

[1] = compound: C1=CC=C2C(=C1)N=C(S2)C(C#N)C3=NC(=NC=C3)NCCC4=CN=CC=C4
In short: as §1

NVP-TAE684 = compound: COc1cc(N2CCC(N3CCN(C)CC3)CC2)ccc1Nc1ncc(Cl)c(Nc2ccccc2S(=O)(=O)C(C)C)n1 [NVP-TAE684]
In short: as §1

Vandetanib = compound: COc1cc2/c(=N/c3ccc(Br)cc3F)nc[nH]c2cc1OCC1CCN(C)CC1 [Vandetanib]
In short: as §1

| Cell Line | relative viability (CUDC-101; 0.01 µM) | relative viability (CUDC-101; 0.03162 µM) | relative viability (CUDC-101; 0.1 µM) | relative viability (CUDC-101; 0.3162 µM) | relative viability (CUDC-101; 1 µM) | relative viability ([1]; 0.005 µM) | relative viability ([1]; 0.01581 µM) | relative viability ([1]; 0.05 µM) | relative viability ([1]; 0.1581 µM) | relative viability ([1]; 0.5 µM) | relative viability (NVP-TAE684; 0.2 µM) | relative viability (NVP-TAE684; 0.6325 µM) | relative viability (NVP-TAE684; 2 µM) | relative viability (Vandetanib; 0.02 µM) | relative viability (Vandetanib; 0.06325 µM) | relative viability (Vandetanib; 0.2 µM) | relative viability (Vandetanib; 0.6325 µM) | relative viability (Vandetanib; 2 µM) |
| --- | --- | --- | --- | --- | --- | --- | --- | --- | --- | --- | --- | --- | --- | --- | --- | --- | --- | --- |
| LK-2 | 1.09 | 0.978 | 0.948 | 0.885 | 0.546 | 0.753 | 1.11 | 0.97 | 1.21 | 1.07 | 1.09 | 0.924 | 0.356 | 0.97 | 0.969 | 0.966 | 1.06 | 0.815 |
| SW 1573 | 1.16 | 0.976 | 1.09 | 1.07 | 0.734 | 0.855 | 1.11 | 0.792 | 1.13 | 0.978 | 0.948 | 1.02 | 0.645 | 0.941 | 0.972 | 0.92 | 0.979 | 0.983 |
| LU99A | 1.07 | 0.877 | 0.808 | 0.9 | 0.58 | 0.779 | 0.995 | 0.877 | 1.04 | 0.972 | 0.998 | 0.942 | 0.616 | 0.839 | 0.846 | 0.92 | 0.895 | 0.951 |
| NCI-H1623 | 1.11 | 0.858 | 0.82 | 0.813 | 0.552 | 0.981 | 1.01 | 0.837 | 0.96 | 0.846 | 0.945 | 0.868 | 0.852 | 0.891 | 0.905 | 0.949 | 0.938 | 0.825 |
| NCI-H322M | 0.889 | 0.846 | 0.768 | 0.739 | 0.474 | 0.745 | 0.839 | 0.924 | 0.951 | 0.914 | 1.02 | 0.795 | 0.636 | 0.895 | 0.879 | 0.872 | 0.797 | 0.538 |
| COR-L23 | 1.11 | 0.99 | 1.05 | 0.974 | 0.641 | 0.944 | 1.13 | 1.05 | 1.2 | 0.884 | 0.972 | 1 | 0.481 | 0.974 | 0.93 | 1.02 | 1.08 | 1.06 |
| NCI-H1563 | 0.968 | 0.869 | 1.06 | 0.917 | 0.893 | 0.778 | 0.944 | 0.899 | 0.995 | 0.946 | 0.955 | 0.95 | – | 0.973 | 1.07 | 0.989 | 1.03 | 0.94 |

Source: the supplement of paper PMC10307832
